ChEMBL document CHEMBL4308841, “Synthesis, in vitro antiproliferative activity, and kinase inhibitory effects of pyrazole-containing diarylureas and diarylamides” (Eur J Med Chem, 2018)

How the values were obtained:
[1] = test system: HL-60(TB); assay: Growth inhibition of human HL-60(TB) cells incubated for 48 hrs by sulforhodamine B assay; type: functional, cell-based; details: HL-60, 48 h
[2] = test system: SR; assay: Growth inhibition of human SR cells incubated for 48 hrs by sulforhodamine B assay; type: functional, cell-based
[3] = test system: LOX IMVI; assay: Growth inhibition of human LOXIMVI cells incubated for 48 hrs by sulforhodamine B assay; type: functional
[4] = test system: M14; assay: Growth inhibition of human M14 cells incubated for 48 hrs by sulforhodamine B assay; type: functional, cell-based; details: M14, 48 h
[5] = test system: SK-MEL-5; assay: Growth inhibition of human SK-MEL-5 cells incubated for 48 hrs by sulforhodamine B assay; type: functional, cell-based; details: SK-MEL-5, 48 h
[6] = test system: IGROV-1; assay: Growth inhibition of human IGROV1 cells incubated for 48 hrs by sulforhodamine B assay; type: functional, cell-based; details: IGROV-1, 48 h
[7] = test system: ACHN; assay: Growth inhibition of human ACHN cells incubated for 48 hrs by sulforhodamine B assay; type: functional, cell-based
[8] = test system: CAKI-1; assay: Growth inhibition of human Caki1 cells incubated for 48 hrs by sulforhodamine B assay; type: functional, cell-based; details: CAKI-1, 48 h
[9] = test system: HOP-62; assay: Growth inhibition of human HOP62 cells assessed as cell growth at 0.01 uM incubated for 48 hrs by sulforhodamine B assay relative to control; type: functional; details: HOP-62, 48 h, read-out: Activity
[10] = test system: SNB-19; assay: Growth inhibition of human SNB19 cells assessed as cell growth at 0.01 uM incubated for 48 hrs by sulforhodamine B assay relative to control; type: functional; details: SNB-19, 48 h, read-out: Activity
[11] = test system: U-251; assay: Growth inhibition of human U251 cells assessed as cell growth at 0.01 uM incubated for 48 hrs by sulforhodamine B assay relative to control; type: functional; details: U-251, 48 h, read-out: Activity
[12] = test system: MDA-MB-231; assay: Growth inhibition of human MDA-MB-231 cells assessed as cell growth at 0.01 uM incubated for 48 hrs by sulforhodamine B assay relative to control; type: functional; details: MDA-MB-231, 48 h, read-out: Activity
[13] = test system: HCC 2998; assay: Growth inhibition of human HCC2998 cells assessed as cell growth at 0.1 uM incubated for 48 hrs by sulforhodamine B assay relative to control; type: functional; details: HCC 2998, 48 h, read-out: Activity
[14] = test system: OVCAR-5; assay: Growth inhibition of human OVCAR5 cells assessed as cell growth at 0.1 uM incubated for 48 hrs by sulforhodamine B assay relative to control; type: functional; details: OVCAR-5, 48 h, read-out: Activity
[15] = test system: MDA-MB-231; assay: Growth inhibition of human MDA-MB-231 cells assessed as cell growth at 0.1 uM incubated for 48 hrs by sulforhodamine B assay relative to control; type: functional; details: MDA-MB-231, 48 h, read-out: Activity
[16] = test system: K562; assay: Growth inhibition of human K562 cells assessed as cell growth at 1 uM incubated for 48 hrs by sulforhodamine B assay relative to control; type: functional; details: K562, 48 h, read-out: Activity
[17] = test system: NCI-H23; assay: Growth inhibition of human NCI-H23 cells assessed as cell growth at 1 uM incubated for 48 hrs by sulforhodamine B assay relative to control; type: functional; details: NCI-H23, 48 h, read-out: Activity
[18] = test system: HT-29; assay: Growth inhibition of human HT-29 cells assessed as cell growth at 1 uM incubated for 48 hrs by sulforhodamine B assay relative to control; type: functional; details: HT-29, 48 h, read-out: Activity
[19] = test system: SF-539; assay: Growth inhibition of human SF539 cells assessed as cell growth at 1 uM incubated for 48 hrs by sulforhodamine B assay relative to control; type: functional; details: SF-539, 48 h, read-out: Activity
[20] = test system: Malme-3M; assay: Growth inhibition of human MALME-3M cells assessed as cell growth at 1 uM incubated for 48 hrs by sulforhodamine B assay relative to control; type: functional; details: read-out: Activity
[21] = test system: UACC-257; assay: Growth inhibition of human UACC257 cells assessed as cell growth at 1 uM incubated for 48 hrs by sulforhodamine B assay relative to control; type: functional; details: UACC-257, 48 h, read-out: Activity
[22] = test system: HL-60(TB); assay: Growth inhibition of human HL-60(TB) cells assessed as cell growth at 100 uM incubated for 48 hrs by sulforhodamine B assay relative to control; type: functional; details: HL-60, 48 h, read-out: Activity
[23] = test system: MOLT-4; assay: Growth inhibition of human MOLT4 cells assessed as cell growth at 100 uM incubated for 48 hrs by sulforhodamine B assay relative to control; type: functional; details: MOLT-4, 48 h, read-out: Activity
[24] = test system: SR; assay: Growth inhibition of human SR cells assessed as cell growth at 100 uM incubated for 48 hrs by sulforhodamine B assay relative to control; type: functional; details: read-out: Activity
[25] = test system: HOP-62; assay: Growth inhibition of human HOP62 cells assessed as cell growth at 100 uM incubated for 48 hrs by sulforhodamine B assay relative to control; type: functional; details: HOP-62, 48 h, read-out: Activity
[26] = test system: SF-295; assay: Growth inhibition of human SF295 cells assessed as cell growth at 100 uM incubated for 48 hrs by sulforhodamine B assay relative to control; type: functional; details: SF-295, 48 h, read-out: Activity
[27] = test system: MDA-MB-435; assay: Growth inhibition of human MDA-MB-435 cells assessed as cell growth at 100 uM incubated for 48 hrs by sulforhodamine B assay relative to control; type: functional; details: MDA-MB-435, 48 h, read-out: Activity
[28] = test system: OVCAR-8; assay: Growth inhibition of human OVCAR8 cells assessed as cell growth at 100 uM incubated for 48 hrs by sulforhodamine B assay relative to control; type: functional; details: OVCAR-8, 48 h, read-out: Activity
[29] = read-out: LC50 (the source's name)
[30] = read-out: pLC50 (the source's name) (converted)

O=C(Nc1cccc(-n2cc(-c3ccncc3)c(-c3cc(O)cc(Cl)c3)n2)c1)c1ccc(N2CCOCC2)c(C(F)(F)F)c1
GI50 ([1]; read-out: GI50): 0.81 µM
LC50 ([1]; read-out: LC50): > 100 µM
TGI ([1]; read-out: TGI): 30.4 µM
GI50 ([1]; read-out: pGI50 (converted)): 0.813 µM
LC50 ([1]; read-out: pLC50 (converted)): > 100 µM
TGI ([1]; read-out: pTGI (converted)): 3.02 µM
GI50 ([2]; read-out: GI50): 0.338 µM
CC50 [2, 29]: > 100 µM
TGI ([2]; read-out: TGI): 15.3 µM
GI50 ([2]; read-out: pGI50 (converted)): 0.339 µM
CC50 [2, 30]: > 100 µM
TGI ([2]; read-out: pTGI (converted)): 1.82 µM
GI50 ([3]; read-out: GI50): 1.03 µM
CC50 [3, 29]: > 100 µM
TGI ([3]; read-out: TGI): 48.1 µM
GI50 ([3]; read-out: pGI50 (converted)): 1.02 µM
CC50 [3, 30]: > 100 µM
TGI ([3]; read-out: pTGI (converted)): 4.57 µM
GI50 ([4]; read-out: GI50): 0.774 µM
CC50 [4, 29]: 54.5 µM
TGI ([4]; read-out: TGI): 21.4 µM
GI50 ([4]; read-out: pGI50 (converted)): 0.776 µM
CC50 [4, 30]: 8.51 µM
TGI ([4]; read-out: pTGI (converted)): 2.75 µM
GI50 ([5]; read-out: GI50): 2.33 µM
CC50 [5, 29]: 45.4 µM
TGI ([5]; read-out: TGI): 84.9 µM
GI50 ([5]; read-out: pGI50 (converted)): 2.34 µM
CC50 [5, 30]: 46.8 µM
TGI ([5]; read-out: pTGI (converted)): 8.51 µM
GI50 ([6]; read-out: GI50): 5.12 µM
CC50 [6, 29]: > 100 µM
TGI ([6]; read-out: TGI): > 100 µM
GI50 ([6]; read-out: pGI50 (converted)): 5.13 µM
CC50 [6, 30]: > 100 µM
TGI ([6]; read-out: pTGI (converted)): > 100 µM
GI50 ([7]; read-out: GI50): 1.54 µM
CC50 [7, 29]: > 100 µM
TGI ([7]; read-out: TGI): 29.3 µM
GI50 ([7]; read-out: pGI50 (converted)): 1.82 µM
CC50 [7, 30]: > 100 µM
TGI ([7]; read-out: pTGI (converted)): 29.5 µM
GI50 ([8]; read-out: GI50): 1.1 µM
CC50 [8, 29]: > 100 µM
TGI ([8]; read-out: TGI): 60 µM
GI50 ([8]; read-out: pGI50 (converted)): 1.1 µM
CC50 [8, 30]: > 100 µM
TGI ([8]; read-out: pTGI (converted)): 6.03 µM
growth at 0.01 µM [9]: 100%
growth at 0.01 µM [10]: 101%
growth at 0.01 µM [11]: 97%
growth at 0.01 µM [12]: 100%
growth at 0.1 µM [13]: 100%
growth at 0.1 µM [14]: 90%
growth at 0.1 µM [15]: 92%
growth at 1 µM [16]: 30%
growth at 1 µM [17]: 92%
growth at 1 µM [18]: 94%
growth at 1 µM [19]: 58%
growth at 1 µM [20]: 52%
growth at 1 µM [21]: 54%
growth at 100 µM [22]: -48%
growth at 100 µM [23]: -20%
growth at 100 µM [24]: -25%
growth at 100 µM [25]: -7%
growth at 100 µM [26]: -81%
growth at 100 µM [27]: 8%
growth at 100 µM [28]: 17%
